How the values were obtained:
Details in all cases: incubation time: 72 h
CAL-51 [1] = assay: normalised response (% of control), CellTox Green; higher = less cell death (100 = DMSO, 0 = benzethonium chloride kill control)
Method in brief: (§1)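 Each value is the plate-normalised signal at one concentration of the series. Breast cancer cell lines (20 µl suspension) were incubated 72 h in 384-well plates with compound at 5 concentrations in 10-fold steps over a compound-specific 10,000-fold range. CellTox Green and then CellTiter-Glo were read, and each plate was scaled to 0.1 % DMSO (100) and a positive kill control (0).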

HCC1937 [2] = assay: as above
Method in brief: as §1

MDA-MB-231 [3] = assay: as above
Method in brief: as §1

MFM-223 [4] = assay: as above
Method in brief: as §1

BT-474 = assay: normalised response (% of control), CellTiter-Glo; higher = more viable cells (100 = DMSO, 0 = benzethonium chloride kill control)
Method in brief: as §1

BT-549 = assay: as above
Method in brief: as §1

CAL-120 = assay: as above
Method in brief: as §1

CAL-148 = assay: as above
Method in brief: as §1

CAL-51 [5] = assay: as above
Method in brief: as §1

CAL-85-1 = assay: as above
Method in brief: as §1

DU-4475 = assay: as above
Method in brief: as §1

HCC1143 = assay: as above
Method in brief: as §1

HCC1599 = assay: as above
Method in brief: as §1

HCC1937 [6] = assay: as above
Method in brief: as §1

HDQ-P1 = assay: as above
Method in brief: as §1

Hs578T = assay: as above
Method in brief: as §1

MCF-10A = assay: as above
Method in brief: as §1

MDA-MB-231 [7] = assay: as above
Method in brief: as §1

MDA-MB-436 = assay: as above
Method in brief: as §1

MDA-MB-453 = assay: as above
Method in brief: as §1

MDA-MB-468 = assay: as above
Method in brief: as §1

MFM-223 [8] = assay: as above
Method in brief: as §1

SK-BR-3 = assay: as above
Method in brief: as §1

SMILES	normalised response (CAL-51 [1]) [%]	normalised response (HCC1937 [2]) [%]	normalised response (MDA-MB-231 [3]) [%]	normalised response (MFM-223 [4]) [%]	normalised response (BT-474) [%]	normalised response (BT-549) [%]	normalised response (CAL-120) [%]	normalised response (CAL-148) [%]	normalised response (CAL-51 [5]) [%]	normalised response (CAL-85-1) [%]	normalised response (DU-4475) [%]	normalised response (HCC1143) [%]	normalised response (HCC1599) [%]	normalised response (HCC1937 [6]) [%]	normalised response (HDQ-P1) [%]	normalised response (Hs578T) [%]	normalised response (MCF-10A) [%]	normalised response (MDA-MB-231 [7]) [%]	normalised response (MDA-MB-436) [%]	normalised response (MDA-MB-453) [%]	normalised response (MDA-MB-468) [%]	normalised response (MFM-223 [8]) [%]	normalised response (SK-BR-3) [%]
O=C(/C=C/c1cccc(S(=O)(=O)Nc2ccccc2)c1)NO [Belinostat] (10000 nM)	-15.2	80.3	-5.71	62.1	5.7	17.8	7.76	-0.03	44.5	6.45	5.73	12.4	5.36	20.5	30.4	7.71	16.1	2.16	29.3	2.73	8.88	26.1	0
O=P1(N(CCCl)CCCl)NCCCO1 (centres undefined) [Cyclophosphamide] (40000 nM)	105	102	102	102	92.8	100	94.4	101	131	98.8	102	105	92.9	95.8	96.8	106	109	99.9	96.3	101	93.2	108	108
C=C1C[C@@H]2[C@H](CC[C@]3(C)C(=O)CC[C@@H]23)[C@@]2(C)C=CC(=O)C=C12 [Exemestane] (10000 nM)	103	115	92.4	86.2	108	94.5	101	112	81.7	97.7	108	94.1	107	89.5	92.3	102	107	104	88	95.7	76.3	94.5	89.3
COc1cc2ncnc(Nc3ccc(F)c(Cl)c3)c2cc1OCCCN1CCOCC1 [Gefitinib] (10000 nM)	104	98.2	68.6	104	69.8	73.6	83.6	69.7	100	34.7	104	77	81.9	60.9	56	97	26.1	70.5	74.1	60.3	38.1	75	27.1
O=C(Nc1ccncc1)C(=O)c1cn(Cc2ccc(Cl)cc2)c2ccccc12 [Indibulin] (10000 nM)	-2.59	99	46.3	72.9	73.5	39.2	60.7	103	18.4	43	79	47.9	73.1	69	72	51.4	76.1	53.8	44.7	66.9	37	62.5	27
CCc1c2c(nc3ccc(OC(=O)N4CCC(N5CCCCC5)CC4)cc13)-c1cc3c(c(=O)n1C2)COC(=O)[C@]3(O)CC [Irinotecan] (10000 nM)	-10.4	55.9	106	103	69.5	49.1	70	26.4	34.8	63.6	41.8	60.1	29.8	70.9	73.3	86.9	68.2	84.8	36.8	102	23.2	96.5	47.4
Oc1ccc2c(c1)CC[C@H](c1ccccc1)[C@@H]2c1ccc(OCCN2CCCC2)cc1 [Lasofoxifene] (1000 nM)	105	72.2	119	95.5	103	95.2	114	122	78.9	100	96.2	97.7	99.2	99.3	94.1	107	117	102	110	88.7	99.7	102	105
Cc1ccc(NC(=O)c2ccc(CN3CCN(C)CC3)cc2)cc1Nc1nc(-c2cccnc2)cs1 [Masitinib] (10000 nM)	74.2	88.7	-12.8	96.5	33.2	59.5	80.8	97.7	59.1	64.4	99.4	80.5	49.6	65	75.5	96.6	91.6	51.5	51.7	55.6	36.6	73	31.8

From the supplement of paper PMC4862054
